Measurements published in patent publication EP0082667A1, “Pharmaceutical compositions” (BEECHAM GROUP PLC, priority 1981, dated 1983).
Where two headings read alike, the source gives them in different places. Each block holds one molecule with its values, some of them ahead of it.

How the values were obtained:
[1] = system: KOS strain of Herpes simplex type 1 virus in Vero cell monolayers; experiment: Plaque inhibition assay of sera from dosed mice (biological assay of antiviral activity in serum); format: cell-based; details: inferred from comparison of serum bioassay with HPLC levels of BVDU and metabolite
Procedure: (§1) A single 100 mg/kg dose of BVDU, alone or in combination with 100 mg/kg or 200 mg/kg of probenecid, was administered as a suspension in carboxymethyl cellulose'to groups of 3 starved female Balb/c mice. Blood was collected at 30, 75 (or 85) and 120 minutes after dosing and the serum separated and stored at -20°C.
(§2) Heat inactivated sera from single mice were titrated in plaque inhibition assays using the KOS strain of Herpes simplex type 1 virus in Vero cell monolayers. Antiviral activity is calculated by extrapolation from a standard inhibition dose response curve for BVDU and is quoted as the equivalent concentration of BVDU (in pg/mL) giving the same activity in cell culture.
(§3) Mice dosed with BVDU and serum assayed at 30 and 85 minutes atter drug administration.

[2] = as above; format: cell-based, Herpes simplex type 1 virus; details: Experiment 1, single 100 mg/kg dose of BVDU, mouse serum, read-out: Antiviral activity in serum (BVDU equiv (µg/mL) ± Standard Deviation)
Procedure: as §1, §2, §3

[3] = HPLC assay of BVDU, BVDU metabolite and probenecid in mouse serum; format: in vivo, female Balb/c mice; details: for concentration at 1.25 h: Experiment 2, 75 mins after dosing; for concentration at 2 h: Experiment 2, 120 mins after dosing
Procedure: as §1
Instrument: Waters H.P.L.C. Column: RCM 100 C18 Reverse Phase Radical Compression Column Solvents: Solvent (A) 0.05M Ammonium Acetate at pH4.5 Solvent (B) 80% Methanol, 10% Water, 10%(A) Conditions: 50% (B) Detector wavelength: 250 mp Solvent Flow: 1 and 3 mL/min.
Mouse serum samples (90 pL each) were treated with 16% aqueous trichloroacetic acid solution (90 µL) to deposit all proteins and the samples spun down using a micro centrifuge. The supernatant portions were assayed by injection (20 µL) into a reverse phase HPLC column). […] Under these conditions, the BVDU metabolite had retention time of 10.8 min and BVDU 11.6 min. The amounts of BVDU and Probenecid were calculated by comparison with an injected known amount of.each drug. The amounts of BVDU metabolite were calculated by assuming the same detector response as BVDU. All calculations were then extrapolated to give the amount of each component present in each serum sample in pg/mL.
as §3
Mice dosed with BVDU or combinations of BVDU and Probenecid and the serum assayed by HPLC at 30, 75 and 120 minutes after drug administration.

[4] = system: herpes simplex virus type 1 (strain SC-16); experiment: Mouse ear herpesvirus model (virus replication and ear inflammation); format: in vivo, female Balb/c mice; details: for Virus titre (log10 p.f.u./ear) / Difference in ear thickness between uninfected and infected ears (mm x 10^-2): oral 3 x daily day 0 to day 4, BVDU 100mg/kg/dose or BVDU/Probenecid 100/200mg/kg/dose
Procedure: 1. Mouse Ear Herpesvirus Model (Reference, H.J. Field, Antimicrob. Ag. Chemother., 21, 744 (1982))
This model is based upon comparisons of viral replication in, and intlammation of, the ears of untreated or treated mice atter infection with herpesvirus.
The left pinna of female Balb/c mice were infected intradermally with 10^5 PFU of herpes simplex virus type 1 (strain SC-16) suspended in 2U^gl of Eagle minimum essential medium. The mice were treated orally 3 times daily from the time of infection until day +4 with BVDU at 100mg/kg/dose or a 1:2 mixture of BVDU and probenecid (100/200mg/kg/dose). At selected times after infection groups of three mice were killed and the ear thickness of both the left and right ears measured using a micrometer gauge. The left ears were then removed and placed individually into 3ml of phosphate buffered saline. Samples were homogenised and sonicated. After centrifugation the supernatant was removed and assayed immediately in a plaque assay in Vero cells.

[5] = system: herpes simplex virus type 1 (strain SC-16); experiment: Hairless mouse cutaneous herpesvirus model (lesion scoring); format: in vivo, adult hairless (HrHr) female mice; details: each x one mouse, BVDU 100mg/kg or BVDU/Probenecid 100/200mg/kg
Procedure: When hairless mice are infected with herpesvirus by dermal scaritication, vesicles appear at the site ot inoculation b days later. These rapidly coalesce to form a spreading unilateral lesion involving one hind quarter, leading eventually to ascending paralysis and death. The ettect ot treatments is assessed by a scoring method as lesions develop.
uroups ot lu adult hairless (HrHr) female mice were anaesthetized using ether and then infected with herpes simplex virus type 1 (strain SC-16) by scarifying an area =1cm^2 at a site parallel with the top of the left hind limb, just below the midline, and introducing a drop ot virus-containing solution to tnis site. single dally doses ot placebo, Bvuu (100mg/kg/dose) or a 1:2 mixture or BVDU and probenecid (100/200mg/kg/dose) were administered orally for seven days, commencing 24 hours after intection. From 4 days atter infection individual mice were examined daily and scored according to the severity ot infection.

[6] = Detection of BVDU and metabolite in urine of the dosed animals; format: in vivo, mice
[7] = mouse, in vivo, 100 mg/kg, single dose, BVDU 100 mg/kg alone or with probenecid 100 or 200 mg/kg, read-out: Concentration (µg/mL) in Serum BVDU
[8] = Day +8, single daily oral doses for seven days
[9] = Day +11, single daily oral doses for seven days
[10] = single dose, probenecid 200 mg/kg alone or 100 or 200 mg/kg with BVDU 100 mg/kg, read-out: Concentration (µg/mL) in Serum Probenecid

Compound: O=c1[nH]cc(/C=C/Br)c(=O)[nH]1 [BVDU Metabolite]
antiviral activity [1]: no significant antiviral activity

Compound: O=c1[nH]c(=O)n([C@H]2C[C@H](O)[C@@H](CO)O2)cc1/C=C/Br [BVDU, E-5-(2-bromovinyl)-2'-deoxyuridine]
concentration at 0.5 h ([2]; 30 mins after dosing): 39.8 ± 10.6 µg/mL
concentration at 85 min ([2]; 85 mins after dosing): 4.7 ± 1.4 µg/mL
concentration at 0.5 h ([3]; in vivo, Experiment 2, 30 mins after dosing, single dose, BVDU 100 mg/kg alone or with probenecid 100 or 200 mg/kg (dose in brackets in label), read-out: Concentration (µg/mL) in Serum BVDU): 26.1 µg/mL
concentration at 0.5 h ([3]; mouse, in vivo, 100 mg/kg, Experiment 1, 30 mins after dosing, single 100 mg/kg dose of BVDU, read-out: HPLC Determinations BVDU Conc (µg/mL) in serum): 38 µg/mL
concentration at 85 min ([3]; mouse, in vivo, 100 mg/kg, Experiment 1, 85 mins after dosing, single 100 mg/kg dose of BVDU, read-out: HPLC Determinations BVDU Conc (µg/mL) in serum): 3.9 µg/mL
concentration at 1.25 h [3, 7]: 13 µg/mL
concentration at 2 h [3, 7]: 3.6 µg/mL
Virus titre (log10 p.f.u./ear) ([4]; Experiment A, day 1 post inoculation): 3.5 log10 p.f.u./ear
Virus titre (log10 p.f.u./ear) ([4]; Experiment A, day 2 post inoculation): 3.0 log10 p.f.u./ear
Virus titre (log10 p.f.u./ear) ([4]; Experiment A, day 3 post inoculation): 2.9 log10 p.f.u./ear
Virus titre (log10 p.f.u./ear) ([4]; Experiment A, day 4 post inoculation): 3.3 log10 p.f.u./ear
Virus titre (log10 p.f.u./ear) ([4]; Experiment A, day 7 post inoculation): 1.3 log10 p.f.u./ear
Virus titre (log10 p.f.u./ear) ([4]; Experiment B, day 1 post inoculation): 4.1 log10 p.f.u./ear
Virus titre (log10 p.f.u./ear) ([4]; Experiment B, day 2 post inoculation): 3.0 log10 p.f.u./ear
Virus titre (log10 p.f.u./ear) ([4]; Experiment B, day 3 post inoculation): 3.3 log10 p.f.u./ear
Virus titre (log10 p.f.u./ear) ([4]; Experiment B, day 4 post inoculation): 3.9 log10 p.f.u./ear
Virus titre (log10 p.f.u./ear) ([4]; Experiment B, day 7 post inoculation): 0 log10 p.f.u./ear
Difference in ear thickness between uninfected and infected ears (mm x 10^-2) ([4]; day 1 post inoculation): 10.1 mm x 10^-2
Difference in ear thickness between uninfected and infected ears (mm x 10^-2) ([4]; day 2 post inoculation): 14.2 mm x 10^-2
Difference in ear thickness between uninfected and infected ears (mm x 10^-2) ([4]; day 3 post inoculation): 13.4 mm x 10^-2
Difference in ear thickness between uninfected and infected ears (mm x 10^-2) ([4]; day 4 post inoculation): 15.1 mm x 10^-2
Difference in ear thickness between uninfected and infected ears (mm x 10^-2) ([4]; day 7 post inoculation): 20.7 mm x 10^-2
Difference in ear thickness between uninfected and infected ears (mm x 10^-2) ([4]; day 8 post inoculation): 20.8 mm x 10^-2
Difference in ear thickness between uninfected and infected ears (mm x 10^-2) ([4]; day 9 post inoculation): 20.2 mm x 10^-2
Difference in ear thickness between uninfected and infected ears (mm x 10^-2) ([4]; day 11 post inoculation): 16.1 mm x 10^-2
Difference in ear thickness between uninfected and infected ears (mm x 10^-2) ([4]; day 12 post inoculation): 14.0 mm x 10^-2
Difference in ear thickness between uninfected and infected ears (mm x 10^-2) ([4]; day 14 post inoculation): 10.1 mm x 10^-2
ear thickness ([4]; oral 3 times daily until day +4, BVDU 100mg/kg/dose or 1:2 mixture 100/200mg/kg/dose): no ettect
Mice with lesion score 2 (Scab at infection site) ([5]; Day +4, single daily oral doses for seven days from 24 hours after infection): xxxxxxx
Mice with lesion score 1 (1° Vesicles) ([5]; Day +4, single daily oral doses for seven days): xxx
Mice with lesion score 5 (Severe spreading) [5, 8]: xxxxxxx
Mice with lesion score 7 (Death) [5, 8]: xx
Mice with lesion score 4 (Spreading) [5, 9]: xx
Mice with lesion score 5 (Severe spreading) [5, 9]: xxx
Mice with lesion score 7 (Death) [5, 9]: xxxx
detected in the urine [6]: only BVDU and none of the metabolite was detected in the urine

concentration at 0.5 h ([3]; Experiment 2, 30 mins after dosing, single dose, probenecid 200 mg/kg alone or 100 or 200 mg/kg with BVDU 100 mg/kg, read-out: Concentration (µg/mL) in Serum Probenecid): 3.8 µg/mL
concentration at 1.25 h [3, 10]: 3.2 µg/mL
concentration at 2 h [3, 10]: 2.3 µg/mL
Compound: CCCN(CCC)S(=O)(=O)c1ccc(C(=O)O)cc1 [Probenecid]
